Assay results taken from patent US20240287138A1, “CYCLIC PEPTIDES FOR INHIBITING TNF RECEPTOR 1 ACTIVITY” (Merck Sharp & Dohme LLC, priority 2023, published 2024).
Numbered stars: 1 amine (or outer) side, 2 acyl side, 3 side chain; on linkers, the order of the positions; unused ones are H or OH. Bridge positions count the residues as written; N and C are the ends. Square brackets hold non-standard residues; d marks the D form. Peptide text beside a SMILES is read from it. * marks the point of attachment. Trp(βS-Me,7-OMe) = COc1cccc2c([C@H](C)[C@H](N)C(=O)O)c[nH]c12; X44 = NC(=O)c1ccc([C@@H](O)[C@H](N[*:1])C(=O)[*:2])cc1; Phe(4-SO2NH2) = N[C@@H](Cc1ccc(S(N)(=O)=O)cc1)C(=O)O; dPro(trans-4-NMe2) = CN(C)[C@@H]1CN[C@@H](C(=O)O)C1; Trp(7-CN) = N#Cc1cccc2c(C[C@H](N)C(=O)O)c[nH]c12; Trp(7-Cl) = N[C@@H](Cc1c[nH]c2c(Cl)cccc12)C(=O)O; Ala(pyrimidin-5-yl) = N[C@@H](Cc1cncnc1)C(=O)O; Phe(4-CONH2) = NC(=O)c1ccc(C[C@H](N)C(=O)O)cc1; Phe(4-COOH) = N[C@@H](Cc1ccc(C(=O)O)cc1)C(=O)O; 4Pal(3S-Me) = C[C@@H](c1ccncc1)[C@H](N)C(=O)O; Trp(7-aza) = N[C@@H](Cc1c[nH]c2ncccc12)C(=O)O; dPro(4S-NH2) = N[C@@H]1CN[C@@H](C(=O)O)C1; Pip(5R-OH) = O=C(O)[C@@H]1CC[C@@H](O)CN1; Nle(6-COOH) = N[C@@H](CCCCC(=O)O)C(=O)O; X1 = O=C([C@@H]1CC[C@H](N[*:1])C1)[*:2]; Pip(4-aza) = O=C(O)[C@@H]1CNCCN1; 4Pal = N[C@@H](Cc1ccncc1)C(=O)O; NMeE = CN[C@@H](CCC(=O)O)C(=O)O; dHyp = O=C(O)[C@H]1C[C@H](O)CN1; Ahp(2) = CCCCC[C@H](N)C(=O)O; αMeS = C[C@](N)(CO)C(=O)O; Carboxymethyl = O=C(O)C*; Nle = CCCC[C@H](N)C(=O)O; Me2NCH2CH2 = CN(C)CC*; Sar = CNCC(=O)O

Columns and labels:
[1] = molecular target: T1, TNFα-induced NF-κB signal transduction pathway (TNFR1 signaling) in THP-1 cells (Homo sapiens, UniProt P19438); assay: THP-1 Lucia NF-κB reporter cell assay, inhibition of TNFα-induced NF-κB signaling; assay type: cell-based; conditions: THP-1 NF-κB Lucia reporter cells, 10 ng/mL TNFα, 16-18 h, secreted luciferase; read-out: THP-1 IC50
T1 sequence (P19438 30-455): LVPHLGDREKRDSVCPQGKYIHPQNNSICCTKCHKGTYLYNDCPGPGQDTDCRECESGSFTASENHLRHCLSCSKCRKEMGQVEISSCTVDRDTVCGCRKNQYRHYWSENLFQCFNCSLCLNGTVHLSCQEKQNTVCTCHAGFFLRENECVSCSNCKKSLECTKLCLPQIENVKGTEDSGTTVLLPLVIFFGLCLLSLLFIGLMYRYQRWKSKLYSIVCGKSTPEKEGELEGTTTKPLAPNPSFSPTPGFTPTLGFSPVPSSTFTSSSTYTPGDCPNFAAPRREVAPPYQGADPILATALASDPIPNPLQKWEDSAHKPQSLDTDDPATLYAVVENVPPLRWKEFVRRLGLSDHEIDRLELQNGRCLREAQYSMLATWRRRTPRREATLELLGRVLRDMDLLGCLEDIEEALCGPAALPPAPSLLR
Procedure, shortened: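 IC50 from a 4-parameter logistic fit of secreted luciferase luminescence (QUANTI-Luc), normalised to min/max controls. Reporter THP-1 cells were exposed to peptides for 1 h at 37 °C before 10 ng/mL TNFα (final) was added overnight (16–18 h).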

[2] = molecular target: T2, human soluble TNFR1 (sTNFR1) (Homo sapiens, UniProt P19438); assay: Human sTNFR1-peptide displacement assay (LanthaScreen Eu TR-FRET binding assay)
T2 construct: made in house; host or cells: Sf21 (baculovirus)
T2 sequence (P19438 with tags, fused parts or gaps): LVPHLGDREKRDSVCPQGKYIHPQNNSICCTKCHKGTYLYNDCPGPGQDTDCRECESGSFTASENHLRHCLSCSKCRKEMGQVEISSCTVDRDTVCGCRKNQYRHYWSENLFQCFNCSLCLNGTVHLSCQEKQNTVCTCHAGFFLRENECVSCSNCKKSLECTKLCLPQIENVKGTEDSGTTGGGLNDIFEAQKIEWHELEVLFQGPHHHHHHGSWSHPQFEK
Procedure, shortened: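 Readout is the 665/615 nm TR-FRET ratio (Eu anti-His donor, streptavidin-Alexa647 acceptor), normalized to DMSO and saturating displacer, fit by Morrison-based five-parameter logistic for Kd^app. His-tagged sTNFR1 (1-211) prebound to 100 nM biotinylated peptide SEQ ID NO.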

SMILES | IC50 [1] [nM] | Kd [2] [nM] | IC50 [2] [nM]
CCCC[C@@H]1NC(=O)[C@@H]2CC[C@@H](C2)NC(=O)[C@H]([C@@H](C)c2c[nH]c3c(OC)cccc23)NC(=O)CN(C)C(=O)[C@H]([C@H](O)c2ccc(C(N)=O)cc2)NC(=O)[C@H](Cc2ccc(C(=O)O)cc2)NC(=O)[C@](C)(CO)NC(=O)[C@H](Cc2c[nH]c3c(C#N)cccc23)NC(=O)[C@H](Cc2ccc(C(=O)O)cc2)NC(=O)[C@H](CC(N)=O)NC(=O)[C@H]2C[C@H](N(C)C)CN2C(=O)[C@H](Cc2c[nH]c3ncccc23)NC(=O)[C@@H]2CNCCN2C(=O)[C@H](Cc2ccncc2)NC1=O [SEQ ID NO. 287] (cyclo([4Pal][Pip(4-aza)][Trp(7-aza)][dPro(trans-4-NMe2)]N[Phe(4-COOH)][Trp(7-CN)][αMeS][Phe(4-COOH)][X44][Sar][Trp(βS-Me,7-OMe)][X1][Nle])) | 1.7 | 0.22 | 
CCCC[C@@H]1NC(=O)[C@@H]2CC[C@@H](C2)NC(=O)[C@H]([C@@H](C)c2c[nH]c3c(OC)cccc23)NC(=O)CN(C)C(=O)[C@H](Cc2ccc(OCC(=O)O)cc2)NC(=O)[C@H](Cc2ccc(S(N)(=O)=O)cc2)NC(=O)[C@](C)(CO)NC(=O)[C@H](Cc2c[nH]c3c(C#N)cccc23)NC(=O)[C@H](Cc2ccc(OCC(=O)O)cc2)NC(=O)[C@H](CC(N)=O)NC(=O)[C@H]2C[C@H](N)CN2C(=O)[C@H](Cc2c[nH]c3ccccc23)NC(=O)[C@@H]2CC[C@@H](O)CN2C(=O)[C@H](Cc2cncnc2)NC1=O [SEQ ID NO. 37] (cyclo(NY(Carboxymethyl)[Trp(7-CN)][αMeS][Phe(4-SO2NH2)]Y(Carboxymethyl)[Sar][Trp(βS-Me,7-OMe)][X1][Nle][Ala(pyrimidin-5-yl)][Pip(5R-OH)]W[dPro(4S-NH2)])) | 0.6 | 0.09 | 
CCCC[C@@H]1NC(=O)[C@@H]2CC[C@@H](C2)NC(=O)[C@H]([C@@H](C)c2c[nH]c3c(OC)cccc23)NC(=O)CN(C)C(=O)[C@H](Cc2ccc(OCCN(C)C)cc2)NC(=O)[C@H](Cc2ccc(C(=O)O)cc2)NC(=O)[C@](C)(CO)NC(=O)[C@H](Cc2c[nH]c3c(Cl)cccc23)NC(=O)[C@H](Cc2ccncc2)NC(=O)[C@H](CC(N)=O)NC(=O)[C@H](CCC(=O)O)N(C)C(=O)[C@H](Cc2c[nH]c3ccccc23)NC(=O)[C@@H]2CNCCN2C(=O)[C@H](Cc2ccncc2)NC1=O [SEQ ID NO. 195] (cyclo([4Pal][Trp(7-Cl)][αMeS][Phe(4-COOH)]Y(Me2NCH2CH2)[Sar][Trp(βS-Me,7-OMe)][X1][Nle][4Pal][Pip(4-aza)]W[NMeE]N)) | 1.6 | 0.28 | 
CCCCC[C@@H]1NC(=O)[C@@H]2CC[C@@H](C2)NC(=O)[C@H]([C@@H](C)c2c[nH]c3c(OC)cccc23)NC(=O)CN(C)C(=O)[C@H](Cc2ccc(C(N)=O)cc2)NC(=O)[C@H](Cc2ccc(C(N)=O)cc2)NC(=O)[C@](C)(CO)NC(=O)[C@H](Cc2c[nH]c3c(C#N)cccc23)NC(=O)[C@H](Cc2ccc(C(=O)O)cc2)NC(=O)[C@H](CC(N)=O)NC(=O)[C@H]2C[C@H](O)CN2C(=O)[C@H](Cc2c[nH]c3ccccc23)NC(=O)[C@H](CCCCC(=O)O)NC(=O)[C@H]([C@@H](C)c2ccncc2)NC1=O [SEQ ID NO. 176] (cyclo([Ahp(2)][4Pal(3S-Me)][Nle(6-COOH)]W[dHyp]N[Phe(4-COOH)][Trp(7-CN)][αMeS][Phe(4-CONH2)][Phe(4-CONH2)][Sar][Trp(βS-Me,7-OMe)][X1])) | 1 | 0.22 | 
CCCC[C@@H]1NC(=O)CSC[C@@H](C(N)=O)NC(=O)[C@H]([C@@H](C)c2c[nH]c3c(OC)cccc23)NC(=O)CN(C)C(=O)[C@H](Cc2ccc(C(=O)O)cc2)NC(=O)[C@H](Cc2ccc(C(=O)O)cc2)NC(=O)[C@](C)(CO)NC(=O)[C@H](Cc2c[nH]c3c(Cl)cccc23)NC(=O)[C@H](Cc2ccncc2)NC(=O)[C@H](CC(N)=O)NC(=O)[C@H](CCC(=O)O)N(C)C(=O)[C@H](Cc2c[nH]c3ccccc23)NC(=O)[C@@H]2CNCCN2C(=O)[C@H](Cc2ccncc2)NC1=O [SEQ ID NO. 251] ({CH2CO}-[Nle][4Pal][Pip(4-aza)]W[NMeE]N[4Pal][Trp(7-Cl)][αMeS][Phe(4-COOH)][Phe(4-COOH)][Sar][Trp(βS-Me,7-OMe)]C-NH2; thioether N-14) | 2.7 | 1.17 | 0.5
